In patent US5326907A, “2-aminoethanesulfonic acid derivatives of 3,5-disubstituted-4-hydroxyphenolic thioethers” (G. D. Searle & Co., priority 1992, dated 1994):
Structures can show the parent of a compound that is named as a salt.

Assays:
5-lipoxygenase = target: T1, 5-lipoxygenase (Rattus norvegicus, UniProt P12527); experiment: Inhibition of 5-lipoxygenase, in vitro; assay type: biochemical; conditions: 100,000×g supernatant of RBL-1 homogenate, [1-14C]-arachidonic acid and Ca++; average; read-out: average IC50, inhibition of 5-lipoxygenase (5-HETE synthesis)
T1 construct: supernatant fraction of Rat Basophilic Leukemia Cell Homogenate (RBL-1) serves as a 5-lipoxygenase enzyme source; endogenous in cells; host or cells: RBL-1 (rat basophilic leukemia) cells, 100,000×g supernatant of homogenate
T1 sequence (P12527 1-673): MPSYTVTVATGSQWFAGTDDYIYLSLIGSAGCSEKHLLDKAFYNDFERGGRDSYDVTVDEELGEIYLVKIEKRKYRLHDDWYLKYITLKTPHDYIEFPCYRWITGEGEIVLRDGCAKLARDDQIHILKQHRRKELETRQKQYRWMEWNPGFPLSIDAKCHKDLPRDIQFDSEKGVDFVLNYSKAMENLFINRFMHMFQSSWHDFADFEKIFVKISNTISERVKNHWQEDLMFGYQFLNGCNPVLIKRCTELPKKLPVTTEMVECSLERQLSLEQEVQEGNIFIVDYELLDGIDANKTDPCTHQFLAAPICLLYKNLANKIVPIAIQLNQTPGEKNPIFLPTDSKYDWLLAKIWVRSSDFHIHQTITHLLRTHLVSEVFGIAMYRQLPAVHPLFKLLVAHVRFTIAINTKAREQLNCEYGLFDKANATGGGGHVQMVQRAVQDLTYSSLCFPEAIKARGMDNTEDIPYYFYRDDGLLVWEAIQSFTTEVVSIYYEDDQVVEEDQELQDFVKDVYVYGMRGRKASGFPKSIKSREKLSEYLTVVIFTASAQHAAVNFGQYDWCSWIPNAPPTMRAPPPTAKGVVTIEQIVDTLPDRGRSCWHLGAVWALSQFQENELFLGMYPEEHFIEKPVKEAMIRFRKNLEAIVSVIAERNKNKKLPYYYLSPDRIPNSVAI
Method: The compounds of the invention are evaluated with respect to 5-lipoxygenaseinhibition according to the following assay procedure.
The 100,000×g supernatant fraction of Rat Basophilic Leukemia Cell Homogenate (RBL-1) serves as a 5-lipoxygenase enzyme source. The enzyme is incubated with [1-^14 C)-arachidonic acid and Ca++ in the presence and absence of test compound. The product of 5-lipoxygenase, 5-hydroxyeicosa-tetraenoic acid (5-HETE), is separated by thin-layer chromatography and measured by radioactivity. A compound inhibiting 5-HETE synthesis by 30% or more is considered active at that concentration.

[1] = system: superoxide generation by FMLP-stimulated human neutrophils; experiment: Human neutrophil superoxide generation (FMLP-stimulated, cytochrome C reduction); assay type: cell-based; conditions: pH 7.2, 37° C., preincubated 3 minutes, average, read-out: average IC50, inhibition of superoxide generation
Method: The compounds of the invention are evaluated with respect to superoxide modulating activity according to the following assay procedure:
Superoxide generation by formyl-methionyl-leucyl-phenylalanine (FMLP)-stimulated neutrophils was quantitated by the reduction of cytochrome C (Badwey, J. A., Curnutte, J. T. and Karnovsky, M. L., cis-Polyunsaturated fatty acids induce high levels of superoxide production by human neutrophils. J. Biol. Chem. 256:12640-12643, 1981.) To 5 million neutrophils in 2.85 ml of Krebs-Ringer phosphate buffer, pH 7.2, 50 ul of inhibitor (in 10% DMSO/buffer), and 50 ul ferricytochrome C (5 mM, stock) were added and preincubated for 3 minutes at 37° C. Absorption measurements at 550 nm were recorded at start of preincubation. Fifty ul FMLP (6 uM, stock) was added to initiate reaction. A plateau was reached within 3 minutes and this reading minus the initial reading (before addition of FMLP) was used to calculate nanomoles of superoxide generated based on a molar extinction coefficient of 2.1×10^4 cm^-1 mole^-1.
Human neutrophils were isolated from freshly drawn blood of healthy donors. Two ml of 5% dextran (MW 200,000-300,000) in saline was added to 10 ml aliquots of blood, mixed and placed upright for 45 min. at 37° C. Approx. […] The red cell lysing procedure was repeated, the cells suspended in appropriate buffer (depending on assay) and counted.

[2] = compared with histamine; background information; cited from earlier work

SMILES | IC50 (5-lipoxygenase) [µM] | IC50 [1] [µM] | potency in causing long lasting bronchoconstricting effects relative to histamine [2]
C[C@H](Sc1cc(C(C)(C)C)c(O)c(C(C)(C)C)c1)[C@@H](C)OCC(=O)NCCS(=O)(=O)O (relative stereo) [Example 5, 2-[[[2S*-[[3,5-bis(1,1-dimethylethyl)-4-hydroxyphenyl]thio]-1R*-methylpropoxy]acetyl]amino]ethanesulfonic acid, potassium salt] | 3.25 | 87.5 | 
CCCCC/C=C\C\C=C/C=C/C=C/[C@@H](SC[C@H](NC(=O)CC[C@H](N)C(=O)O)C(=O)NCC(=O)O)[C@@H](O)CCCC(=O)O [LTC4] |  |  | at least 100 times
